Experimental data reported in US9040565B2, “1H-benzimidazole-5-carboxamides as anti-inflammatory agents” (Orexo AB, priority 2008, dated 2015).

Target: T1, recombinant human mPGES-1 (Homo sapiens, UniProt O14684)
T1 construct: made in house; host or cells: Rosetta E. coli (microsomal/membrane fraction)
T1 sequence (O14684 1-152): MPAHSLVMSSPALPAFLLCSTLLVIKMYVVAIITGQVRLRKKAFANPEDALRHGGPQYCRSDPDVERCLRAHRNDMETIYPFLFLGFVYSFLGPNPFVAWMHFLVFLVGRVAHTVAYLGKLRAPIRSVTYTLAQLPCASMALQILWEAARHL
Test: mPGES-1 inhibition, HTRF detection of PGE2 (Biological Test)
Type: biochemical
Description: Microsomes from Rosetta E. coli bacteria expressing recombinant human mPGES-1 is dissolved in 0.1 M KPi pH 7.4 buffer containing 2.5 mM GSH. 50 μl of the enzyme is subsequently dispensed in a 384-well plate. 0.5 μl of the inhibitor dissolved in DMSO at is thereafter added to each well and incubated for 25 minutes at room temperature.
Subsequently, 2 μl of PGH2 dissolved in an appropriate solvent is added to each well and after one minute the acidified stop solution containing FeCl2 is added. 4 μl of the total volume is transferred to a separate plate and diluted 750-fold in two separate steps before HTRF detection of PGE2.
The HTRf detection is performed by the use of a commercially available kit from CisBio essentially according to the manufacturer's protocol. Briefly, 10 μl of the diluted sample is transferred to a white 384-well plate. 5 μl of d2 and 5 μl Eu3+-Cryptate labeled anti-PGE2 is added to each well containing samples by the use of a Multidrop. The plate is covered with a plastic self-adhesive film, centrifuged at 1200 rpm for 1 minute and subsequently stored at +4° C. over night.
After over night incubation the fluorescence is measured by the use of an appropriate microplate reader. The fluorescence of europium cryptate, and d2 are measured using the following excitation and emission wavelength, europium cryptate: λmax^ex=307 nm, λmax^em=620 nm and d2: λmax^ex=620 nm, λmax^em=665 nm), respectively. The extent of the specific FRET is measured as a ratio of the emission intensity at 665 nm vs. that at 620 nm. A standard curve using synthetic PGE2 is used to quantify the amount of PGE2 in unknown samples.

Structure (SMILES)	inhibition at 10 µM
CC1(C)CCC(NC(=O)c2ccc3nc(Nc4c(Cl)cncc4Cl)[nH]c3c2)CC1 [Example 409, 2-(3,5-Dichloropyridin-4-ylamino)-N-(4,4-dimethylcyclohexyl)-1H-benzimidazole-6-carboxamide]	100%
Cn1c(Nc2c(Cl)cncc2Cl)nc2cc(C(=O)NC3CCC(C)(C)CC3)ccc21 [Example 435, 2-(3,5-dichloropyridin-4-ylamino)-N-(4,4-dimethylcyclohexyl)-1-methyl-1H-benzimidazole-5-carboxamide]	100%
Cn1c(Nc2c(Cl)cncc2Cl)nc2cc(C(=O)NCc3ccccc3C(F)(F)F)ccc21 [Example 467, 2-(3,5-Dichloropyridin-4-ylamino)-1-methyl-N-(2-trifluoromethyl-benzyl)-1H-benzimidazole-5-carboxamide]	96%
Cc1ccnc(Cl)c1Nc1nc2ccc(C(=O)NC3CCC(C)(C)CC3)cc2[nH]1 [Example 531, 2-(2-Chloro-4-methylpyridin-3-ylamino)-N-(4,4-dimethylcyclohexyl)-1H-benzimidazole-5-carboxamide]	93%
Cn1c(Nc2c(Cl)cncc2Cl)nc2cc(C(=O)NC3CCCCC3)ccc21 [Example 547, N-Cyclohexyl-2-(3,5-dichloropyridin-4-ylamino)-1-methyl-1H-benzimidazole-5-carboxamide]	96%
Cn1c(Nc2c(Cl)cncc2Cl)nc2cc(C(=O)NCc3ncccc3C(F)(F)F)ccc21 [Example 553, 2-(3,5-Dichloropyridin-4-ylamino)-1-methyl-N-((3-trifluoromethyl-pyridin-2-yl)methyl)-1H-benzimidazole-5-carboxamide]	53%
CCOc1cc2[nH]c(Nc3c(Cl)cncc3Cl)nc2cc1C(=O)Nc1cc(C(F)F)c(F)cn1 [Example 655, 2-(3,5-Dichloro-pyridin-4-yl-amino)-6-ethoxy-N-(5-fluoro-4-difluoromethyl-pyridin-2-yl)-1H-benzimidazole-5-carboxamide]	100%
CN(C)c1cc(C(F)(F)F)cc(NC(=O)c2cc3nc(Nc4c(Cl)cncc4Cl)[nH]c3cc2OCC(F)(F)F)n1 [Example 656, 2-(3,5-Dichloro-pyridin-4-yl-amino)-6-(2,2,2-trifluoroethoxy)-N-(6-dimethylamino-4-trifluoromethyl-pyridin-2-yl)-1H-benzimidazole-5-carboxamide]	96%
Cn1c(Nc2c(Cl)cncc2Cl)nc2cc(C(=O)Nc3ccc(Br)cc3)c(OC3CCOC3)cc21 (centres unmarked) [Example 661, 2-(3,5-Dichloropyridin-4-ylamino)-N-(4-bromophenyl)-6-(tetrahydrofuran-3-yl-oxy)-1-methyl-1H-benzimidazole-5-carboxamide]	100%
CN1CCC(Oc2cc3c(cc2C(=O)Nc2ccc(Br)cc2)nc(Nc2c(Cl)cncc2Cl)n3C)C1 (centres unmarked) [Example 662, 2-(3,5-Dichloropyridin-4-ylamino)-N-(4-bromophenyl)-6-(N-methyl-pyrrolidin-3-yl-oxy)-1-methyl-1H-benzimidazole-5-carboxamide]	99%
Cn1c(Nc2c(Cl)cncc2Cl)nc2cc(C(=O)Nc3ccc(Br)cc3)c(OCCN3CCCC3)cc21 [Example 663, 2-(3,5-Dichloropyridin-4-ylamino)-N-(4-bromophenyl)-6-(2-(pyrrolidin-1-yl)-ethoxy)-1-methyl-1H-benzimidazole-5-carboxamide]	96%
Cn1c(Nc2c(Cl)cncc2Cl)nc2cc(C(=O)Nc3ccc(Br)cc3)c(OCCN3CCCC3=O)cc21 [Example 664, 2-(3,5-Dichloropyridin-4-ylamino)-N-(4-bromophenyl)-6-(2-(pyrrolidin-2-on-1-yl)-ethoxy)-1-methyl-1H-benzimidazole-5-carboxamide]	99%
Cn1c(Nc2c(Cl)cncc2Cl)nc2cc(C(=O)NCc3ccccc3C(F)(F)F)c(OC3CCOC3)cc21 (centres unmarked) [Example 665, 2-(3,5-Dichloropyridin-4-ylamino)-N-((2-trifluoromethyl-phen-1-yl)-methyl)-6-(tetrahydrofuran-3-yl-oxy)-1-methyl-1H-benzimidazole-5-carboxamide]	99%
CCOc1cc2[nH]c(Nc3c(Cl)cncc3Cl)nc2cc1C(=O)NCc1ncccc1C(F)(F)F [Example 667, 2-(3,5-Dichloropyridin-4-ylamino)-N-((3-trifluoromethyl-pyridin-2-yl)-methyl)-6-ethoxy-1H-benzimidazole-5-carboxamide]	99%
CCOc1cc2c(cc1C(=O)NCc1ncccc1C(F)(F)F)nc(Nc1c(Cl)cncc1Cl)n2C [Example 668, 2-(3,5-Dichloropyridin-4-ylamino)-N-((3-trifluoromethyl-pyridin-2-yl)-methyl)-6-ethoxy-1-methyl-1H-benzimidazole-5-carboxamide]	100%
CCOc1cc2[nH]c(Nc3c(Cl)cncc3Cl)nc2cc1C(=O)NC1CCC(C)(C)CC1 [Example 669, 2-(3,5-Dichloropyridin-4-ylamino)-N-(4,4-dimethyl-cyclohexyl)-6-ethoxy-1H-benzimidazole-5-carboxamide]	100%

Next, values leading:

inhibition at 10 µM	Structure (SMILES)
100%	O=C(Nc1ccc(Br)cc1)c1ccc2nc(Nc3c(Cl)cncc3Cl)[nH]c2c1 [Example 388, N-(4-Bromophenyl)-2-(3,5-dichloropyridin-4-ylamino)-1H-benzimidazole-5-carboxamide]
100%	Cn1c(Nc2c(Cl)cncc2Cl)nc2cc(C(=O)Nc3ccc(Br)cc3)ccc21 [Example 410, N-(4-Bromophenyl)-2-(3,5-dichloropyridin-4-ylamino)-1-methyl-1H-benzimidazole-5-carboxamide]
98%	O=C(Nc1cccc(Cl)c1)c1ccc2nc(Nc3c(Cl)cncc3Cl)[nH]c2c1 [Example 434, N-(3-Chlorophenyl)-2-(3,5-dichloropyridin-4-ylamino)-1H-benzimidazole-5-carboxamide]
100%	CC1(C)CCC(NC(=O)c2ccc3[nH]c(Nc4c(Cl)cncc4Cl)nc3c2)CC1 [Example 446, 2-(3,5-Dichloropyridin-4-ylamino)-N-(4,4-dimethylcyclohexyl)-1H-benzimidazole-5-carboxamide]
100%	O=C(NCc1ccccc1C(F)(F)F)c1ccc2[nH]c(Nc3c(Cl)cncc3Cl)nc2c1 [Example 493, 2-(3,5-Dichloropyridin-4-ylamino)-N-(2-trifluoromethyl-benzyl)-1H-benzimidazole-5-carboxamide]
97%	Cn1c(Nc2ccncc2Cl)nc2cc(C(=O)Nc3ccc(Br)cc3)ccc21 [Example 520, N-(4-Bromophenyl)-2-(3-chloropyridin-4-ylamino)-1-methyl-1H-benzimidazole-5-carboxamide]
95%	Cc1ccnc(Cl)c1Nc1nc2ccc(C(=O)Nc3cccc(Cl)c3)cc2[nH]1 [Example 521, 2-(2-Chloro-4-methylpyridin-3-ylamino)-N-(3-chlorophenyl)-1H-benzimidazole-5-carboxamide]
84%	O=C(NCc1ncccc1C(F)(F)F)c1ccc2[nH]c(Nc3c(Cl)cncc3Cl)nc2c1 [Example 565, 2-(3,5-Dichloropyridin-4-ylamino)-N-((3-trifluoromethyl-pyridin-2-yl)methyl)-1H-benzimidazole-5-carboxamide]
77%	O=C(Nc1ccc(Br)cc1)c1ccc2[nH]c(Nc3ccncc3Cl)nc2c1 [Example 566, N-(4-Bromophenyl)-2-(3-chloropyridin-4-ylamino)-1H-benzimidazole-5-carboxamide]
80%	Cc1cnccc1Nc1nc2cc(C(=O)Nc3ccc(Br)cc3)ccc2n1C [Example 567, N-(4-Bromophenyl)-1-methyl-2-(3-methylpyridin-4-ylamino)-1H-benzimidazole-5-carboxamide]
98%	O=C(Nc1ccc(Br)cc1)c1cc2nc(Nc3c(Cl)cncc3Cl)[nH]c2cc1OC1CCOC1 (centres unmarked) [Example 659, 2-(3,5-Dichloro-pyridin-4-yl-amino)-6-(tetrahydrofuran-3-yl-oxy)-N-(4-bromo-phenyl)-1H-benzimidazole-5-carboxamide]
99%	CCCOc1cc2c(cc1C(=O)Nc1ccc(Br)cc1)nc(Nc1c(Cl)cncc1Cl)n2C [Example 660, 2-(3,5-Dichloropyridin-4-ylamino)-N-(4-bromophenyl)-6-propoxy-1-methyl-1H-benzimidazole-5-carboxamide]
100%	COCCOc1cc2c(cc1C(=O)Nc1ccc(Br)cc1)nc(Nc1c(Cl)cncc1Cl)n2C [Example 666, 2-(3,5-Dichloropyridin-4-ylamino)-N-(4-bromophenyl)-6-(2-methoxy-ethoxy)-1-methyl-1H-benzimidazole-5-carboxamide]
